According to ChEMBL document CHEMBL1201862, “PubChem BioAssay data set” (2004):
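In this assay, cells in 96-well plates receive the compound at five concentrations for 48 hours. Endpoints are linearly interpolated between the surrounding concentrations. GI50: concentration for 50% inhibition of growth.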 The source made the active and inactive calls. Rule as the data show it: active = GI50 up to about 1.1 µM and inactive = higher. Residues, ends and D or L forms follow the SMILES beside them. *: point of attachment. Boc = CC(C)(C)OC(=O)*

How the values were obtained:
Experiment in all cases: growth of human tumour cells (NCI), 48 h
A549 = system: A549
SW-620 = system: SW-620
OVCAR-8 = system: OVCAR-8
MOLT-4 = system: MOLT-4
SNB-75 = system: SNB-75
ACHN = system: ACHN
HOP-62 = system: HOP-62
OVCAR-3 = system: OVCAR-3
SK-MEL-2 = system: SK-MEL-2
HCT-116 = system: HCT-116
SN12C = system: SN12C
NCI-H522 = system: NCI-H522
KM12 = system: KM12
OVCAR-4 = system: OVCAR-4
HOP-92 = system: HOP-92
UACC-62 = system: UACC-62
OVCAR-5 = system: OVCAR-5
NCI-H460 = system: NCI-H460
SNB-19 = system: SNB-19
RXF 393 = system: RXF 393

| Structure (SMILES) | GI50 (A549) | GI50 (SW-620) | GI50 (OVCAR-8) | GI50 (MOLT-4) | GI50 (SNB-75) | GI50 (ACHN) | GI50 (HOP-62) | GI50 (OVCAR-3) | GI50 (SK-MEL-2) | GI50 (HCT-116) | GI50 (SN12C) | GI50 (NCI-H522) | GI50 (KM12) | GI50 (OVCAR-4) | GI50 (HOP-92) | GI50 (UACC-62) | GI50 (OVCAR-5) | GI50 (NCI-H460) | GI50 (SNB-19) | GI50 (RXF 393) |
| --- | --- | --- | --- | --- | --- | --- | --- | --- | --- | --- | --- | --- | --- | --- | --- | --- | --- | --- | --- | --- |
| Cc1cc(C)c(S(=O)(=O)N(CCCCCCN)OCCCN)c(C)c1 | 70 µM (inactive) | 17.9 µM (inactive) | 14 µM (inactive) | 15.3 µM (inactive) | 10.3 µM (inactive) | 17.2 µM (inactive) | 20.9 µM (inactive) | 19.9 µM (inactive) | 20.2 µM (inactive) | 17.5 µM (inactive) | 19.6 µM (inactive) | 13 µM (inactive) | 15.1 µM (inactive) | 20.2 µM (inactive) | 15.7 µM (inactive) | 19.5 µM (inactive) | 21.7 µM (inactive) | 15.6 µM (inactive) | 19.3 µM (inactive) |  |
| c1ccc2c(c1)nc1n2CSC1 |  | > 100 µM (inactive) | > 100 µM (inactive) | > 100 µM (inactive) | > 100 µM (inactive) | > 100 µM (inactive) |  | > 100 µM (inactive) | > 100 µM (inactive) |  | > 100 µM (inactive) | > 100 µM (inactive) |  |  | 24 µM (inactive) | > 100 µM (inactive) |  | > 100 µM (inactive) | > 100 µM (inactive) |  |
| COc1ccc(/C(Cl)=C(\C=O)c2ccc(OC)c(OC)c2)cc1 |  | > 100 µM (inactive) | 65.6 µM (inactive) | 28.6 µM (inactive) | 21.7 µM (inactive) | 35.3 µM (inactive) |  | > 100 µM (inactive) | 18.5 µM (inactive) |  | 81.8 µM (inactive) | 9.35 µM (inactive) |  |  | 20.8 µM (inactive) | 16.6 µM (inactive) |  | 35.2 µM (inactive) | 41.1 µM (inactive) |  |
| CCOc1cc(C=O)ccc1O [ETHYL VANILLIN] | > 100 µM (inactive) | > 100 µM (inactive) | > 100 µM (inactive) | > 100 µM (inactive) | 95.1 µM (inactive) | > 100 µM (inactive) | > 100 µM (inactive) | > 100 µM (inactive) | > 100 µM (inactive) | > 100 µM (inactive) | > 100 µM (inactive) | > 100 µM (inactive) | > 100 µM (inactive) | > 100 µM (inactive) | > 100 µM (inactive) |  | > 100 µM (inactive) | > 100 µM (inactive) | > 100 µM (inactive) |  |
| N/C(=N\c1c([N+](=O)[O-])cnc2ccccc12)N1CCOCC1 | > 100 µM (inactive) | > 100 µM (inactive) | > 100 µM (inactive) | > 100 µM (inactive) | > 100 µM (inactive) | > 100 µM (inactive) | > 100 µM (inactive) | > 100 µM (inactive) | > 100 µM (inactive) | > 100 µM (inactive) | > 100 µM (inactive) | > 100 µM (inactive) | > 100 µM (inactive) | > 100 µM (inactive) |  | > 100 µM (inactive) | > 100 µM (inactive) | > 100 µM (inactive) | > 100 µM (inactive) |  |
| CC(NC(=O)C(NC(=O)OC(C)(C)C)C(C)C)C(=O)N1CCCC1C(=O)NCC(=O)NC(C(=O)NCC(=O)O)C(C)C (stereo not drawn) (Boc-VAPGVG-OH; configuration not given here) |  | > 100 µM (inactive) | > 100 µM (inactive) | > 100 µM (inactive) | 29.2 µM (inactive) | > 100 µM (inactive) | > 100 µM (inactive) | > 100 µM (inactive) | > 100 µM (inactive) | > 100 µM (inactive) | > 100 µM (inactive) | > 100 µM (inactive) |  | > 100 µM (inactive) | 29.2 µM (inactive) | > 100 µM (inactive) | > 100 µM (inactive) | 65.5 µM (inactive) | > 100 µM (inactive) |  |
| N#C/C(=C/c1ccco1)C(=O)c1ccccc1 | > 100 µM (inactive) | > 100 µM (inactive) | > 100 µM (inactive) | > 100 µM (inactive) | > 100 µM (inactive) | > 100 µM (inactive) |  |  | > 100 µM (inactive) | > 100 µM (inactive) | > 100 µM (inactive) | > 100 µM (inactive) | > 100 µM (inactive) | > 100 µM (inactive) | > 100 µM (inactive) | > 100 µM (inactive) | > 100 µM (inactive) | > 100 µM (inactive) |  |  |
| O=C1NC2CCCCCC2C12CCCCC2 (stereo not drawn) | > 100 µM (inactive) | > 100 µM (inactive) |  | > 100 µM (inactive) | > 100 µM (inactive) | > 100 µM (inactive) | > 100 µM (inactive) | > 100 µM (inactive) |  | > 100 µM (inactive) | > 100 µM (inactive) |  | > 100 µM (inactive) | > 100 µM (inactive) |  | > 100 µM (inactive) | > 100 µM (inactive) | > 100 µM (inactive) | > 100 µM (inactive) | > 100 µM (inactive) |
| Cc1ncc2c(n1)CCC1=C2OS(=O)(=O)CC1N(C)C (stereo not drawn) | > 100 µM (inactive) | > 100 µM (inactive) | > 100 µM (inactive) | > 100 µM (inactive) | > 100 µM (inactive) | > 100 µM (inactive) | 76.6 µM (inactive) | > 100 µM (inactive) |  | 98.2 µM (inactive) | > 100 µM (inactive) | 31.8 µM (inactive) | > 100 µM (inactive) | > 100 µM (inactive) |  | 96.6 µM (inactive) | > 100 µM (inactive) | > 100 µM (inactive) | > 100 µM (inactive) |  |
| CCOC(=O)C1CCn2c(nc3c(=O)n(C)c(=O)n(C)c32)S1 (stereo not drawn) | > 100 µM (inactive) | > 100 µM (inactive) | > 100 µM (inactive) | > 100 µM (inactive) | > 100 µM (inactive) | > 100 µM (inactive) | > 100 µM (inactive) | > 100 µM (inactive) | > 100 µM (inactive) | > 100 µM (inactive) | > 100 µM (inactive) | > 100 µM (inactive) |  | > 100 µM (inactive) |  | > 100 µM (inactive) | > 100 µM (inactive) | > 100 µM (inactive) | > 100 µM (inactive) | > 100 µM (inactive) |
| COC(=O)N1C=Cc2c(c(C)c3c([nH]c4ccccc43)c2C)C1C (stereo not drawn) | 18 µM (inactive) | 17.7 µM (inactive) | 18.3 µM (inactive) | 5.97 µM (inactive) | 15.3 µM (inactive) | > 10 µM (inactive) | 18.2 µM (inactive) | 16.3 µM (inactive) | 18.3 µM (inactive) | 12.9 µM (inactive) |  |  |  | 12.3 µM (inactive) | 20.1 µM (inactive) | 18 µM (inactive) | 17.2 µM (inactive) | 22.5 µM (inactive) | 18 µM (inactive) |  |
| CO[C@H]1c2cccc3cccc(c23)[C@@H]1n1[nH]c(=O)n(C(C)(C)C)c1=O | > 100 µM (inactive) | > 100 µM (inactive) | > 100 µM (inactive) | > 100 µM (inactive) | > 100 µM (inactive) |  |  | > 100 µM (inactive) | > 100 µM (inactive) | > 100 µM (inactive) | > 100 µM (inactive) | > 100 µM (inactive) | > 100 µM (inactive) | > 100 µM (inactive) |  | > 100 µM (inactive) | > 100 µM (inactive) | > 100 µM (inactive) | > 100 µM (inactive) | > 100 µM (inactive) |
| S=C(N/N=C/c1ccccn1)N1CCCCCC1 | < 0.0142 µM (active) | < 0.01 µM (active) | < 0.01 µM (active) | < 0.01 µM (active) | 0.0783 µM (active) | < 0.01 µM (active) | < 0.01 µM (active) | < 0.01 µM (active) | 0.0659 µM (active) | < 0.01 µM (active) | < 0.0192 µM (active) | < 0.0267 µM (active) | < 0.01 µM (active) |  | 0.0832 µM (active) | < 0.0245 µM (active) | < 0.0458 µM (active) | < 0.01 µM (active) | 0.416 µM (active) |  |
| CS(=O)(=O)N/N=C/CN1C(=O)c2ccccc2C1=O | > 100 µM (inactive) | > 100 µM (inactive) | > 100 µM (inactive) | > 100 µM (inactive) | > 100 µM (inactive) | > 100 µM (inactive) | > 100 µM (inactive) | > 100 µM (inactive) | > 100 µM (inactive) | > 100 µM (inactive) | > 100 µM (inactive) | > 100 µM (inactive) | > 100 µM (inactive) | > 100 µM (inactive) |  | > 100 µM (inactive) | > 100 µM (inactive) | > 100 µM (inactive) | > 100 µM (inactive) |  |
| COc1ccc(CC2(O)C3CC4CCC2C4C3)cc1 (stereo not drawn) | 79.4 µM (inactive) | > 100 µM (inactive) | > 100 µM (inactive) | 45 µM (inactive) | 48.9 µM (inactive) | > 100 µM (inactive) | > 100 µM (inactive) | > 100 µM (inactive) | > 100 µM (inactive) |  | 77.4 µM (inactive) | 88.3 µM (inactive) | > 100 µM (inactive) | > 100 µM (inactive) | 58.5 µM (inactive) | > 100 µM (inactive) | > 100 µM (inactive) | 68.5 µM (inactive) | > 100 µM (inactive) |  |
| O=c1cnnc2sc(=S)[nH]n12 | 46.7 µM (inactive) | 12.4 µM (inactive) | 16.4 µM (inactive) | 15 µM (inactive) |  | 53.5 µM (inactive) | 2.61 µM (inactive) | 32.4 µM (inactive) | > 100 µM (inactive) | > 100 µM (inactive) |  | 8.45 µM (inactive) | > 100 µM (inactive) | 16.7 µM (inactive) |  | 18.2 µM (inactive) | > 100 µM (inactive) | 26.7 µM (inactive) | 27.4 µM (inactive) |  |
